Results: ChEMBL document CHEMBL6121065, “Targeting the "Undruggable": Small-Molecule Inhibitors of Proliferating Cell Nuclear Antigen (PCNA) in the Spotlight in Cancer Therapy” (J Med Chem, 2025)

Experiments:
[1] = test system: HCT-116; assay: Antiproliferative activity against human HCT-116 cells assessed as reduction in cell growth measured for 48 hrs by MTT assay; format: functional, cell-based; conditions: HCT-116, 48 h
[2] = test system: HeLa; assay: Antiproliferative activity against human HeLa cells assessed as reduction in cell growth measured for 48 hrs by MTT assay; format: functional, cell-based
[3] = test system: MCF7; assay: Antiproliferative activity against human MCF7 cells assessed as reduction in cell growth measured for 48 hrs by MTT assay; format: functional, cell-based; conditions: MCF7, 48 h
[4] = test system: HepG2; assay: Antiproliferative activity against human HepG2 cells assessed as reduction in cell growth measured for 48 hrs by MTT assay; format: functional, cell-based; conditions: HepG2, 48 h
[5] = test system: Jurkat; assay: Antiproliferative activity against human Jurkat cells assessed as reduction in cell growth measured for 48 hrs by MTT assay; format: functional, cell-based
[6] = biological target: T1, Proliferating cell nuclear antigen (Homo sapiens, UniProt P12004); assay: Binding affinity to N-terminal recombinant 6His-tagged PCNA (unknown origin) extracted from Escherichia coli BL21 (DE3) by fluorescence polarization assay
T1 sequence (P12004 whole entry): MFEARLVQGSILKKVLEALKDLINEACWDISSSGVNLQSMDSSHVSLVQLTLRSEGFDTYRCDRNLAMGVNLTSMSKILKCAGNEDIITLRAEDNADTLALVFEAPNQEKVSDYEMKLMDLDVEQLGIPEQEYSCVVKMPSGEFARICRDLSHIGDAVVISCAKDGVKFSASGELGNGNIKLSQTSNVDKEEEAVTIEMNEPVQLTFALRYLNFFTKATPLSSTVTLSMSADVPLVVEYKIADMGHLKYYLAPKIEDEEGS

[7] = test system: SK-N-AS; assay: Antiproliferative activity against human SK-N-AS cells assessed as reduction in cell viability incubated for 72 hrs by cell-titer Glo assay; format: functional, cell-based
[8] = test system: SK-N-DZ; assay: Antiproliferative activity against human SK-N-DZ cells; format: functional, cell-based
[9] = Antiproliferative activity against human SK-N-BE(2)-C cells; format: functional, cell-based
[10] = test system: SK-N-AS; assay: Anticancer activity against human SK-N-AS cells; format: functional, cell-based
[11] = biological target: T1, Proliferating cell nuclear antigen; assay: Inhibition of N-terminal 6His-tagged recombinant PCNA (unknown origin) extracted from Escherichia coli BL21 (DE3) by fluorescence based analysis
[12] = test system: A673; assay: Antiproliferative activity against human A673 cells assessed as reduction in cell viability incubated for 72 hrs by MTT assay; format: functional, cell-based; conditions: A673, 72 h
[13] = test system: HeLa; assay: Antiproliferative activity against human HeLa cells assessed as reduction in cell viability incubated for 72 hrs by MTT assay; format: functional, cell-based
[14] = test system: A549; assay: Antiproliferative activity against human A549 cells assessed as reduction in cell viability incubated for 72 hrs by MTT assay; format: functional, cell-based; conditions: A549, 72 h
[15] = test system: SH-SY5Y; assay: Antiproliferative activity against human SH-SY5Y cells assessed as reduction in cell viability; format: functional, cell-based

Row | Compound | Ki [6] [µM] | IC50 [7] [µM] | further results
1 | COc1cc(C(=O)N2CCC(N3CCN(C)CC3)CC2)ccc1Nc1ncc2c(n1)N(C)c1ccccc1C(=O)N2C |  |  | IC50 [1]: 9.25 µM; IC50 [2]: 13.5 µM; IC50 [3]: 42.8 µM; IC50 [4]: 89.1 µM; IC50 [5]: 5.9 µM
2 | O=C1CN(C(=O)CCc2cc(I)c(Oc3ccc(O)cc3)c(I)c2)CCN1 | > 4.81 |  | 
3 | O=C(CNC(=O)c1cccc2ccccc12)Nc1ccc(Oc2ccncc2)cc1 |  | 1.1 | 
4 | Cc1noc(C)c1S(=O)(=O)N[C@H](CO)Cc1cc(I)c(Oc2ccc(O)cc2)c(I)c1 | 0.15 |  | 
5 | CN(C)C(=O)Cc1cc(I)c(Oc2ccc(O)cc2)c(I)c1 | 0.72 |  | 
6 | O=C(CNC(=O)c1cccc2ccccc12)Nc1ccccc1Oc1cccc(O)c1 |  | 0.192 | IC50 [8]: 0.539 µM; IC50 [9]: 0.485 µM
7 | N[C@H](CO)Cc1cc(I)c(Oc2ccc(O)c(I)c2)c(I)c1 | 0.06 |  | 
8 | O=C(CNC(=O)c1cccc2ccccc12)Nc1cccc(Oc2ccncc2)c1 |  | 21.6 | 
9 | N[C@H](CNC(=O)CO)Cc1cc(I)c(Oc2ccc(O)cc2)c(I)c1 | 0.13 |  | 
10 | O=C(Nc1ccccc1Oc1ccccc1)c1cccc2ccccc12 |  |  | IC50 [10]: > 10 µM
11 | COc1ccc(S(=O)(=O)N[C@H](CO)Cc2cc(I)c(Oc3ccc(O)cc3)c(I)c2)cc1 | 0.93 |  | 
12 | Cc1cc(Oc2c(I)cc(C[C@H](N)CO)cc2I)ccc1O | 0.173 |  | 
13 | O=C(CNC(=O)c1cncc2ccccc12)Nc1ccccc1Oc1ccncc1 |  | > 30 | 
14 | O=C(CNC(=O)c1nccc2ccccc12)Nc1ccc(Oc2ccncc2)cc1 |  | > 30 | 
15 | NC(=O)CN(Cc1ccc(CO)cc1)C(=O)CNC(=O)CN[C@H](CO)Cc1cc(I)c(Oc2ccc(O)cc2)c(I)c1 |  |  | IC50 [11]: 5.56 µM
16 | COc1cccc(Oc2ccccc2NC(=O)CNC(=O)c2cccc3ccccc23)c1 |  | 0.125 | IC50 [8]: 0.288 µM; IC50 [9]: 0.236 µM
17 | O=C(CNC(=O)c1nccc2ccccc12)Nc1cccc(Oc2ccncc2)c1 |  | 34 | 
18 | O=C(CNC(=O)c1cccc2ccccc12)Nc1ccc(Cl)cc1Oc1ccccc1 |  | 0.185 | IC50 [8]: 0.447 µM; IC50 [9]: 0.5 µM
19 | O=C(O)CC[C@H](NC(=O)c1cccc2ccccc12)C(=O)Nc1ccccc1Oc1ccccc1 |  |  | IC50 [10]: > 10 µM
20 | O=C(CNC(=O)c1cccc2ccccc12)Nc1ccccc1Oc1ccccc1 |  | 0.1 | IC50 [8]: 0.237 µM; IC50 [9]: 0.325 µM
21 | CNC(=O)Cc1cc(I)c(Oc2ccc(O)cc2)c(I)c1 | 0.78 |  | 

Row | Compound | Ki [6] [µM] | IC50 [7] [µM] | further results
22 | O=C(CCc1cc(I)c(Oc2ccc(O)cc2)c(I)c1)N1CCCCC1 | 0.231 |  | 
23 | N[C@H](CNC(=O)NC(=O)CCN1CCOCC1)Cc1cc(I)c(Oc2ccc(O)cc2)c(I)c1 | 0.11 |  | IC50 [11]: 1.2 µM
24 | O=C(CNC(=O)c1cncc2ccccc12)Nc1cccc(Oc2ccncc2)c1 |  | > 30 | 
25 | CC(C)[C@@H](NC(=O)c1cccc2ccccc12)C(=O)Nc1ccccc1Oc1ccccc1 |  |  | IC50 [10]: > 10 µM
26 | O=C(CNC(=O)c1cncc2ccccc12)Nc1ccc(Oc2ccncc2)cc1 |  | > 30 | 
27 | COc1ccc(Oc2c(I)cc(CCC(=O)N3CCCCC3)cc2I)cc1 | 0.91 |  | 
28 | CS(=O)(=O)NC(=O)Cc1cc(I)c(Oc2ccc(O)cc2)c(I)c1 | 0.87 |  | 
29 | COc1ccc(Oc2c(I)cc(CCC(=O)NS(C)(=O)=O)cc2I)cc1 | > 4.81 |  | 
30 | O=C(CCNC(=O)c1cccc2ccccc12)Nc1ccccc1Oc1ccccc1 |  |  | IC50 [10]: > 10 µM
31 | O=C(CNC(=O)c1cncc2ccccc12)Nc1ccccc1Oc1ccccc1 |  | > 30 | 
32 | NC(=O)CN(Cc1ccc(O)cc1)C(=O)CN(CCO)C(=O)CN[C@H](CO)Cc1cc(I)c(Oc2ccc(O)cc2)c(I)c1 | 0.04 |  | 
33 | CS(=O)(=O)NC(=O)CCc1cc(I)c(Oc2ccc(O)cc2)c(I)c1 | 1.92 |  | 
34 | O=C(Cc1cc(I)c(Oc2ccc(O)cc2)c(I)c1)N1CCOCC1 | 0.6 |  | 
35 | NCCCC[C@H](NC(=O)c1cccc2ccccc12)C(=O)Nc1ccccc1Oc1ccccc1 |  |  | IC50 [10]: > 10 µM
36 | COc1cccc(Oc2ccccc2NC(=O)[C@H](C)NC(=O)c2cccc3ccccc23)c1 |  |  | IC50 [10]: > 10 µM
37 | O=C(CNC(=O)c1cccc2ccccc12)Nc1c(Cl)cccc1Oc1ccccc1 |  | > 10 | IC50 [8]: > 10 µM; IC50 [9]: > 10 µM
38 | O=C(O)CC[C@@H](NC(=O)c1cccc2ccccc12)C(=O)Nc1ccccc1Oc1ccccc1 |  |  | IC50 [10]: > 10 µM
39 | COc1cccc(Oc2ccccc2NC(=O)CNC(=O)c2ccc(-c3ccccc3)cc2)c1 |  | > 10 | 
40 | NC(=O)CN(Cc1ccc2c(c1)OCO2)C(=O)CN(CCO)C(=O)CN[C@H](CO)Cc1cc(I)c(Oc2ccc(O)cc2)c(I)c1 | 0.17 |  | 
41 | NCc1ccc(CN(CC(N)=O)C(=O)CN(CCO)C(=O)CN[C@H](CO)Cc2cc(I)c(Oc3ccc(O)cc3)c(I)c2)cc1 | 0.114 |  | IC50 [11]: 1.18 µM
42 | O=C(CNC(=O)c1cccc2ccccc12)Nc1ccccc1Oc1ccncc1 |  | > 50 | 

Row | Compound | Ki [6] [µM] | IC50 [7] [µM] | further results
43 | NC[C@@H](N)Cc1cc(I)c(Oc2ccc(O)cc2)c(I)c1 | 0.24 |  | 
44 | CCNC(=O)Cc1cc(I)c(Oc2ccc(O)cc2)c(I)c1 | 0.63 |  | 
45 | O=S(=O)(N[C@H](CO)Cc1cc(I)c(Oc2ccc(O)cc2)c(I)c1)c1ccccc1 | 0.57 |  | 
46 | COc1ccc(Oc2ccccc2NC(=O)CNC(=O)c2cccc3ccccc23)cc1 |  | 0.091 | IC50 [8]: 0.271 µM; IC50 [9]: 0.234 µM
47 | O=C(CNC(=O)c1cccc2ccccc12)Nc1ccccc1Oc1ccc(O)cc1 |  | 0.156 | IC50 [8]: 0.467 µM; IC50 [9]: 0.49 µM
48 | COc1cccc(Oc2ccccc2NC(=O)CNC(=O)CCc2cccc3ccccc23)c1 |  | > 10 | 
49 | COc1cccc(Oc2ccccc2NC(=O)CNC(=O)Cc2cccc3ccccc23)c1 |  | > 10 | 
50 | O=C(CNC(=O)c1nccc2ccccc12)Nc1ccccc1Oc1ccccc1 |  | 35 | 
51 | O=S(=O)(N[C@H](CO)Cc1cc(I)c(Oc2ccc(O)cc2)c(I)c1)c1ccc(O)cc1 | 3.08 |  | 
52 | O=C(CNC(=O)c1nccc2ccccc12)Nc1ccccc1Oc1ccncc1 |  | 42 | 
53 | CC(C)[C@H](NC(=O)c1cccc2ccccc12)C(=O)Nc1ccccc1Oc1ccccc1 |  |  | IC50 [10]: > 10 µM
54 | O=C1CN(C(=O)Cc2cc(I)c(Oc3ccc(O)cc3)c(I)c2)CCN1 | 0.87 |  | 
55 | COc1cccc(Oc2ccccc2NC(=O)CNC(=O)c2c(C)cc(C)cc2C)c1 |  |  | IC50 [12]: 5.5 µM; IC50 [13]: 6.5 µM; IC50 [14]: 4.7 µM
56 | C[C@H](NC(=O)c1cccc2ccccc12)C(=O)Nc1ccccc1Oc1ccccc1 |  |  | IC50 [15]: 4 µM
57 | O=C1NC[C@H](Cc2cc(I)c(Oc3ccc(O)cc3)c(I)c2)N1 | 0.54 |  | 
58 | CNC(=O)CCc1cc(I)c(Oc2ccc(OC)cc2)c(I)c1 | 1.63 |  | 
59 | O=C(CNC(=O)c1cccc2ccccc12)Nc1ccccc1Cc1ccccc1 |  | 1.1 | 
60 | NCCCC[C@@H](NC(=O)c1cccc2ccccc12)C(=O)Nc1ccccc1Oc1ccccc1 |  |  | IC50 [10]: > 10 µM
61 | N[C@H](CNC(=O)NCc1ccccc1)Cc1cc(I)c(Oc2ccc(O)cc2)c(I)c1 | 0.01 |  | 
62 | CCCCCCNC(=O)NC[C@@H](N)Cc1cc(I)c(Oc2ccc(O)cc2)c(I)c1 | 0.12 |  | 
